# Data taken from patent US5559213A, “Polyethylene-protein conjugates” (Hoffmann-La Roche Inc., priority 1995, dated 1996).
# T1: IL-1 receptor on EL-4 membranes (Mus musculus, UniProt P13504)
# T1 construct: incubated at varying concentrations with EL-4 membranes; endogenous in cells; host or cells: EL-4 cell membranes
# T1 sequence (P13504 20-576): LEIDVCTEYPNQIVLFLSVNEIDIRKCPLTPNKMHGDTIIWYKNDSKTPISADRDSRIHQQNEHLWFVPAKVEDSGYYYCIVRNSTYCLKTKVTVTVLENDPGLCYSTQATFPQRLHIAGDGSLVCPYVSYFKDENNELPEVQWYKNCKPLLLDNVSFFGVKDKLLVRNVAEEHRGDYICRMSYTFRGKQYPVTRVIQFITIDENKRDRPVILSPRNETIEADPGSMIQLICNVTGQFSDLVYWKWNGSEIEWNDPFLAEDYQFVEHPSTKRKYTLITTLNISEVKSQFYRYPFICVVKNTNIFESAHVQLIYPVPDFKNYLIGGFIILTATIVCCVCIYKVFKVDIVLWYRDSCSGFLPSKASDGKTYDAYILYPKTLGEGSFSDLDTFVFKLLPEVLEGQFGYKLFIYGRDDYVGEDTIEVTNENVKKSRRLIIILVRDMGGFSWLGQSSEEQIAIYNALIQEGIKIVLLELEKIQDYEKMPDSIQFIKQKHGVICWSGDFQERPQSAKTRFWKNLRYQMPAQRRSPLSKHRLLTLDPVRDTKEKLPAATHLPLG
# B1: 26 kD rIL-1 alpha (Example 7): rIL-1 alpha pegylated with the reagent of Example 5; apparent molecular weight 26 kD (conjugate, UniProt P01583 113-271, looked up)
# Interleukin-1 alpha: SAPFSFLSNVKYNFMRIIKYEFILNDALNQSIIRANDQYLTAAALHNLDEAVKFDMGAYKSSKDDAKITVILRISKTQLYVTAQDEDQPVLLKEMPEIPKTITGSETNLLFFWETHGTKNYFTSVAHPNLFIATKQDYWVCLAGGPPSITDFQILENQA
# modifications: PEG conjugate
# notes: apparent molecular weight 26 kD
# B2: 33 kD rIL-1 alpha (Example 7): rIL-1 alpha pegylated with the reagent of Example 5; apparent molecular weight 33 kD (conjugate, UniProt P01583 113-271, looked up)
# Interleukin-1 alpha: B1 Interleukin-1 alpha
# modifications: PEG conjugate
# notes: apparent molecular weight 33 kD
# Assays:
# [1] = biological target: T1, IL-1 receptor on EL-4 membranes; test: IL-1 radioreceptor competition binding assay
# Description: Pegylated IL-1ra was purified from the reaction mixture using hydrophobic exchange chromatography (Bio-Rad; HRLC MP7 HlC). A linear gradient with decreasing salt concentrations from 0.43 to 0.0M (NH4)2 SO4 in 50 mM sodium phosphate pH 7.0 in 20 minutes was used to separate pegylated IL-1ra and unmodified IL-1ra. Aliquots of fractions were evaluated by SDS-PAGE and pooled fractions were assayed in an IL-1 radioreceptor competition binding assay. [Kilian et al. J. Immunol., 136, 4509, (1986)]. Briefly, IL-1ra and PEG-IL-1ra were incubated at varying concentrations with EL-4 membranes for 30 min at 37° C. The [^125 I]IL-1 alpha was then added and the incubation continued for 30 min. The assay was terminated by vacuum filtration and the collection of cell bound [^125 I]IL-1 on filter plates. The concentration of IL-1ra or PEG-IL-1ra that inhibits binding of [^125l]IL- 1 by 50% (IC50) was determined graphically. […] The pegylated IL-1ra mixture retained its ability-to bind to the IL-1 receptor on EL-4 membranes within a factor 2 to 3 fold relative to the unmodified II1-1ra.
# D10 cell = D10 cell proliferation assay (specific activity of rIL-1 alpha); type: cell-based; settings: for Specific Activity: label = apparent molecular weight (kD)
# Description: Pegylated rIL-1 alpha was purified from the reaction mixture after 60 minutes using hydrophobic exchange chromatography (Bio-Rad; HRLC. MP7 HlC). A linear gradient with decreasing salt concentration from 0.43 to 0.0M (NH4)2 SO4 in 50 mM sodium phosphate pH 7.0 in 20 minutes was used to separate pegylated rIL-1 alpha and unmodified rIL-1 alpha. Aliquots of fractions were evaluated by SDS-PAGE and pooled fractions were assayed for specific activity in a D10 cell proliferation assays by the method described by Kaye et al. [J. Exp. Med. 158:836, (1983)]. Protein concentrations were determined spectrophotometrically at […] using an extinction coefficient of 1.0 for rIL-1 alpha. The specific activity of the rIL-1 alpha is approximately 1.0×10^8 units/mg. The 26 kD pegylated IL-1 alpha conjugate retains bioactivity within 2-3 fold of relative to IL-1 alpha.
# CTLL cell = CTLL cell proliferation assay (specific activity of rIL-2); type: cell-based; settings: Example 3, Table III: rIL-2 conjugated to PEG with reagent of Example 1; label = apparent molecular weight (kD)
# Description: Acad. Sci., USA, 84:1483, (1987)] using hydrophic exchange chromatography (Bio-Rad; Biogel-phenyl 5-PW). […] Aliquots of the fractions were evaluated by SDS-PAGE and pooled fractions were assayed to determine its specific activity in a CTLL cell proliferation assay by the method described by Gillis et al. [J. Immunology 120:2027, (1978)].
# MDBK = test: Anti-viral activity (specific activity) in an MDBK assay; type: cell-based; settings: label = apparent molecular weight (kD)
# Description: The predominant molecular weight species from the reaction mixture were identified by SDS-PAGE with apparent molecular weights of 15 (unmodified),and 28 kD. The 28 kD pegylated protein accounted for 40% of the, total protein. The pegylated IFN-alpha was purified from the 60 minute reaction mixture and characterized using hydrophobic exchange chromatography (Bio-Rad; Biogel-phenyl-S-PW). A linear gradient with decreasing salt concentrations from 0.42M to 0.0M (NH4)2 SO4 in 50 mM sodium phosphate pH 7.0 in 20 minutes was used to separate pegylated IFN-alpha and unmodified IFN-alpha. Aliquots of the fractions were evaluated by SDS-PAGE and pooled fractions were assayed for anti-viral activity (specific activity) in an MDBK assay by the method described in by Familletti, et al. [Methods Enzym. 78,387 (1987)].
# Protein concentrations were determined spectrophotometrically at […] using an extinction coefficient of 1.0 for a 1 mg/ml IFN-alpha buffered solution.
# [2] = test system: rIL-1alpha induction of interleukin-6; test: Inhibition of rIL-1alpha induction of interleukin-6 in mice (pharmacodynamics); type: in vivo
# Description: The pharmacodynamics of IL-1ra protein was evaluated in vivo by the ability of the IL-1ra to inhibit rIL-1alpha induction of interleukin-6. Serum from mice treated with rIL-1alpha contain high levels of IL-6, [McIntosh et al., Immunol. 143: 162, (1989)]. The administration of unmodified IL-1ra together with IL-1alpha (0 hr time point) inhibits the induction of IL-6. This test system was used to compare the pharmacodynamic properties of unmodified and PEG IL-1ra. […] Three hours later, serum samples were collected. IL-6 levels (units) were determined using a modification of an IL-6 assay that has been previously described [Van Snick et al., Proc. Natl. Acad. Sci. USA 83:9679, (1986)]. In the IL.-6 assay, B9 hybridoma cells were treated with two fold serial dilutions of the test sera in 96-well microtiter plates. Following a 3 day incubation at 37° C. in a humidified atmosphere comprised of 5% CO2 and 95% air, the wells were pulsed with 0.5 uCi of tritiated thymidine and incubated for an additional 18 hr. The cells were then harvested onto glass fiber filters and the level of tritiated thymidine incorporation was determined by scintillation counting. IL-6 activity is expressed as U/ml. IL-6 units are defined as the inverse of the serum dilution which produces half-maximal tritiated thymidine incorporation compared to a reference standard.
# [3] = Example 7, Table VIII: rIL-1 alpha conjugated with reagent of Example 5
molecule,measurement,setting,value
"alpha-[2-[[(2-Pyridinyloxy)carbonyl]amino]ethyl]omega-[2-[[(2-pyridinyloxy)carbonyl]amino]-ethoxy]poly(oxy-1,2-ethanediyl) SRU 180 [Example 33]",IC50,"[1]; Example 6A, Table VII: IL-1ra conjugated with reagent of Example 5a, label = apparent molecular weight (kD)",9.0 ng/mL
same,IC50,"[1]; Example 12A, Table XIII: IL-1ra pegylated with reagent of Example 11a, label = apparent molecular weight (kD)",6.0 ng/mL
same,IC50,"[1]; Example 19, Table XIV: IL-1ra pegylated with reagent of Example 18, label = apparent molecular weight (kD)",30.0 ng/mL
same,IC50,"[1]; Example 19A, Table XV: IL-1ra pegylated with reagent of Example 18a, label = apparent molecular weight (kD)",9.0 ng/mL
same,IC50,"[1]; Example 29, Table XX: IL-1ra pegylated with reagent of Example 28, label = molecular weight (kD)",5.0 ng/mL
same,Specific Activity,D10 cell; [3],4.5 × 10^6 units/mg
"alpha-[(2-Pyridinyloxy)thiocarbonyl]-omega-methoxypoly (oxy-1,2-ethanediyl) SRU 225 [Example 28]",Specific Activity,CTLL cell,2.4 × 10^7 units/mg
same,IC50,"[1]; Example 12, Table XII: IL-1ra pegylated with reagent of Example 11, label = apparent molecular weight (kD)",3.0 ng/mL
same,Specific Activity,"MDBK; Example 8, Table IX: IFN-alpha conjugated with reagent of Example 5",1.4 × 10^8 units/mg
same,Specific Activity,"MDBK; Example 20, Table XVI: IFN-alpha conjugated with reagent of Example 18",8.0 × 10^7 units/mg
"rIL-1 alpha: Recombinant Interleukin 1-alpha, unmodified; apparent molecular weight 17 kD by SDS-PAGE",IL-6 in mice treated only with IL-1,"[2]; Example 6 experiment, 0.2 ug rIL-1 alpha, serum three hours later",28852 U/ml
same,IL-6 induced by IL-1 alone,[2]; Example 12 experiment,27283 u/ml
same,IL-6 response to IL-1 alone,"[2]; Example 19A experiment, 0.05 ug rIL-1 alpha",9203 units/ml
same,Specific Activity,D10 cell; [3],4.6 × 10^7 units/mg
same,Specific Activity,"D10 cell; Example 27, Table XIX: rIL-1 alpha conjugated to PEG with reagent of Example 23",1.1 × 10^8 units/mg
same,specific activity of the rIL-1 alpha,"D10 cell; general statement, Example 7",approximately 1.0×10^8 units/mg
B1,bioactivity relative to IL-1 alpha,D10 cell; Example 7,2-3 fold
B2,bioactivity relative to IL-1 alpha,D10 cell; Example 7,substantial loss of bioactivity
